IC50 data for 28 molecules are collected here from US9096518B2, “Substituted hydroxamic acids and uses thereof” (Millennium Pharmaceuticals, Inc., priority 2009, dated 2015).

A value given as a limit tells only on which side of the number the result lay.

The experiment concerns the target T1, purified human HDAC6 (Homo sapiens, UniProt Q9UBN7).
T1 construct: purchased BPS Bioscience 5006
T1 sequence (Q9UBN7 1-1215): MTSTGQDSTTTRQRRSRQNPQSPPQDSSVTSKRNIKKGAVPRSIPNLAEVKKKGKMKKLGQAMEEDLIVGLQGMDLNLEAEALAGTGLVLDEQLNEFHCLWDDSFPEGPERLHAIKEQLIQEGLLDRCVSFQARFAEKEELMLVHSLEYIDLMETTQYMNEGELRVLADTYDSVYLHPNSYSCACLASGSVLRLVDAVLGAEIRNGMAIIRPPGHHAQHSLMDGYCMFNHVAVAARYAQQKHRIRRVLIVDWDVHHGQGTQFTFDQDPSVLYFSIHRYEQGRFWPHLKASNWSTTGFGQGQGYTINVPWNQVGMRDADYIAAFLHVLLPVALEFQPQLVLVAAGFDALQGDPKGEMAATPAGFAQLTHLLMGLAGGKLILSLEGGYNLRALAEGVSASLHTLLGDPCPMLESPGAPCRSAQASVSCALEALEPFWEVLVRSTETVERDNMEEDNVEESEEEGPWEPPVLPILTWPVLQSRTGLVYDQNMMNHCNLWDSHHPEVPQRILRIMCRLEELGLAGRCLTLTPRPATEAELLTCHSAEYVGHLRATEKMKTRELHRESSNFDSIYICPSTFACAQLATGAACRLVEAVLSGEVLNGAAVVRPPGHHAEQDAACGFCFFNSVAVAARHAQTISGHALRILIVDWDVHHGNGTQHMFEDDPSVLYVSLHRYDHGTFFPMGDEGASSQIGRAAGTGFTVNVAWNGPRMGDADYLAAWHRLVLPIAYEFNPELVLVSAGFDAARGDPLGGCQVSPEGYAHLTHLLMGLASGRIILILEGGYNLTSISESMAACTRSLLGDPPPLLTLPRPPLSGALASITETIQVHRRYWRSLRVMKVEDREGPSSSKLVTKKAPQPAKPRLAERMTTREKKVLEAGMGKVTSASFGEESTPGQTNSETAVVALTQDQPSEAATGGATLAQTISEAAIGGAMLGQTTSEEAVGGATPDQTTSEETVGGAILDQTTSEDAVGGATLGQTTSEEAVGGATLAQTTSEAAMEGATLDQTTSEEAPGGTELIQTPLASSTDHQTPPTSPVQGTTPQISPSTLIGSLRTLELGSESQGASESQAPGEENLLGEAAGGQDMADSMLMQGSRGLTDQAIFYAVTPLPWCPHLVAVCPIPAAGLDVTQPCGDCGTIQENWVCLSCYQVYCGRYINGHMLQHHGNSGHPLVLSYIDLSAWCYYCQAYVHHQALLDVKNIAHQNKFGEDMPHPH
Nature of the experiment: HDAC6 Enzyme Assay. The experiment is classed as biochemical. In short, it runs like this: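 Purified human HDAC6 incubated 1 h at 30 °C with Ac-Arg-Gly-Lys(Ac)-AMC peptide and compound; reaction stopped with trichostatin A, then trypsin releases AMC, read by fluorescence (Ex 340/Em 460 nm). IC50 from concentration-response curves relative to DMSO controls.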
For `COc1cccc(CC(=O)N2CCc3cc(C(=O)NO)ccc3C2)c1` [Compound 34, N-hydroxy-2-[(3-methoxyphenyl)acetyl]-1,2,3,4-tetrahydroisoquinoline-6-carboxamide], the IC50 (as a rule, the midpoint of a concentration-inhibition curve) lay in the range of 50 to 100 nM. With `CC(C)c1ccc(NC(=O)N2CCc3cc(C(=O)NO)ccc3C2)cc1` [Compound 104, N^6-hydroxy-N^2-(4-isopropylphenyl)-3,4-dihydroisoquinoline-2,6(1H)-dicarboxamide], the IC50 is less than 50 nM.

Molecule `Cc1c(C(=O)N2CCc3cc(C(=O)NO)ccc3C2)cnn1-c1ccccc1` [Compound 18, N-hydroxy-2-[(5-methyl-1-phenyl-1H-pyrazol-4-yl)carbonyl]-1,2,3,4-tetrahydroisoquinoline-6-carboxamide] displayed a concentration for half-maximal inhibition (IC50) of 50 to 100 nM. `O=C(NO)c1ccc2c(c1)CCN(CCOc1ccccc1)C2` [Compound 63, N-hydroxy-2-(2-phenoxyethyl)-1,2,3,4-tetrahydroisoquinoline-6-carboxamide]: the IC50 is 100 to 500 nM. On to `O=C(NO)c1ccc2c(c1)CCN(Cc1cccc(OC(F)(F)F)c1)C2` [Compound 109, N-hydroxy-2-[3-(trifluoromethoxy)benzyl]-1,2,3,4-tetrahydroisoquinoline-6-carboxamide], for which the half-inhibitory concentration (IC50) lay within 100 to 500 nM. `O=C(NO)c1ccc2c(c1)CCN(C(=O)Nc1ccc3c(c1)OCO3)C2` [Compound 90, N^2-1,3-benzodioxol-5-yl-N^6-hydroxy-3,4-dihydroisoquinoline-2,6(1H)-dicarboxamide] came in with a half-inhibitory concentration (IC50) of less than 50 nM. For `Cc1nc(CC(=O)N2CCc3cc(C(=O)NO)ccc3C2)cs1` [Compound 6, N-hydroxy-2-[(2-methyl-1,3-thiazol-4-yl)acetyl]-1,2,3,4-tetrahydroisoquinoline-6-carboxamide], the IC50 was in the range of 100 to 500 nM.

Turning to `O=C(NO)c1ccc2c(c1)CCCN(C(=O)c1c(F)cc(F)cc1F)C2` [Compound 241, N-hydroxy-2-(2,4,6-trifluorobenzoyl)-2,3,4,5-tetrahydro-1H-2-benzazepine-7-carboxamide], the IC50 was in the range of 100 to 500 nM. For the molecule `CC(C)(C(=O)N1Cc2ccc(C(=O)NO)cc2C1)c1ccc(Cl)cc1` [Compound 80, 2-[2-(4-chlorophenyl)-2-methylpropanoyl]-N-hydroxyisoindoline-5-carboxamide], the IC50 is less than 50 nM. Under `O=C(NO)c1ccc2c(c1)CCN(S(=O)(=O)CC(c1ccccc1)c1ccccc1)C2` [Compound 56, 2-[(2,2-diphenylethyl)sulfonyl]-N-hydroxy-1,2,3,4-tetrahydroisoquinoline-6-carboxamide] stands 100 to 500 nM; under `O=C(NO)c1ccc2c(c1)CCN(C(=O)NC1CCCCC1)C2` [Compound 101, N^2-cyclohexyl-N^6-hydroxy-3,4-dihydroisoquinoline-2,6(1H)-dicarboxamide], less than 50 nM; under `O=C(NO)c1ccc2c(c1)CCN(C(=O)c1cnn(-c3ccccc3)c1)C2` [Compound 7, N-hydroxy-2-[(1-phenyl-1H-pyrazol-4-yl)carbonyl]-1,2,3,4-tetrahydroisoquinoline-6-carboxamide], less than 50 nM.

`Cc1cc(C(=O)N2CCCc3cc(C(=O)NO)ccc3C2)no1` [Compound 245, N-hydroxy-2-[(5-methylisoxazol-3-yl)carbonyl]-2,3,4,5-tetrahydro-1H-2-benzazepine-7-carboxamide] had an IC50 of 100 to 500 nM. In turn, `C[C@H](C(=O)N1CCc2cc(C(=O)NO)ccc2C1)c1ccccc1` [Compound 29, N-hydroxy-2-[(2S)-2-phenylpropanoyl]-1,2,3,4-tetrahydroisoquinoline-6-carboxamide] showed an IC50 of 50 to 100 nM. For the molecule `CC(N)(Cc1ccccc1)C(=O)N1CCc2cc(C(=O)NO)ccc2C1` (stereo not shown) [Compound 20, 2-(2-amino-2-methyl-3-phenylpropanoyl)-N-hydroxy-1,2,3,4-tetrahydroisoquinoline-6-carboxamide], the 50% inhibitory concentration (IC50) lay in the range of 100 to 500 nM.

`CCC(C)NC(=O)N1CCc2cc(C(=O)NO)ccc2C1` (stereo not shown) [Compound 93, N^2-(sec-butyl)-N^6-hydroxy-3,4-dihydroisoquinoline-2,6(1H)-dicarboxamide] returned an IC50 of less than 50 nM. The molecule `Cn1cccc1C(=O)N1CCc2ccc(C(=O)NO)cc2CC1` [Compound 86, N-hydroxy-3-[(1-methyl-1H-pyrrol-2-yl)carbonyl]-2,3,4,5-tetrahydro-1H-3-benzazepine-7-carboxamide] registered an IC50 of 100 to 500 nM. Consider `CC(C)(C)OC(=O)Nc1ccc(-c2cc(C(=O)N3CCc4cc(C(=O)NO)ccc4C3)no2)cc1` [Compound 237, tert-butyl[4-(3-{[6-[(hydroxyamino)carbonyl]-3,4-dihydroisoquinolin-2(1H)-yl]carbonyl}isoxazol-5-yl)phenyl]carbamate], for which the IC50 fell in the range of 50 to 100 nM. On to `O=C(NO)c1ccc2c(c1)CCCN(C(=O)c1cccc3ccccc13)C2` [Compound 234, N-hydroxy-2-(1-naphthoyl)-2,3,4,5-tetrahydro-1H-2-benzazepine-7-carboxamide], for which the IC50 lay in the range of 100 to 500 nM. Molecule `O=C(NO)c1ccc2c(c1)CCN(C/C=C/c1ccccc1)C2` [Compound 64, N-hydroxy-2-[(2E)-3-phenylprop-2-en-1-yl]-1,2,3,4-tetrahydroisoquinoline-6-carboxamide] gave a half-inhibitory concentration (IC50) of 100 to 500 nM. For `O=C(NO)c1ccc2c(c1)CCN(S(=O)(=O)c1ccc(F)cc1)C2` [Compound 50, 2-[(4-fluorophenyl)sulfonyl]-N-hydroxy-1,2,3,4-tetrahydroisoquinoline-6-carboxamide] the value was 100 to 500 nM; for `O=C(NO)c1ccc2c(c1)CCN(Cc1ccc3nonc3c1)C2` [Compound 65, 2-(2,1,3-benzoxadiazol-5-ylmethyl)-N-hydroxy-1,2,3,4-tetrahydroisoquinoline-6-carboxamide], 100 to 500 nM. On to `O=C(NO)c1ccc2c(c1)CCCN(C(=O)c1cnc3ccccc3n1)C2` [Compound 243, N-hydroxy-2-(quinoxalin-2-ylcarbonyl)-2,3,4,5-tetrahydro-1H-2-benzazepine-7-carboxamide], for which the IC50 was in the range of 100 to 500 nM. As to `O=C(NO)c1ccc2c(c1)CCN(C(=O)Nc1ccc(Cc3ccccc3)cc1)C2` [Compound 99, N^2-(4-benzylphenyl)-N^6-hydroxy-3,4-dihydroisoquinoline-2,6(1H)-dicarboxamide], the IC50 is less than 50 nM. `CC(=O)N1CCC(C(=O)N2CCc3cc(C(=O)NO)ccc3C2)CC1` [Compound 36, 2-[(1-acetylpiperidin-4-yl)carbonyl]-N-hydroxy-1,2,3,4-tetrahydroisoquinoline-6-carboxamide] gave an IC50 of 100 to 500 nM. `CC1(C(=O)N2CCc3cc(C(=O)NO)ccc3C2)CCCCC1` [Compound 28, N-hydroxy-2-[(1-methylcyclohexyl)carbonyl]-1,2,3,4-tetrahydroisoquinoline-6-carboxamide] showed a concentration for half-maximal inhibition (IC50) of 100 to 500 nM. For the molecule `O=C(NO)c1ccc2c(c1)CCN(Cc1nc(-c3ccc(Cl)cc3)no1)C2` [Compound 71, 2-{[3-(4-chlorophenyl)-1,2,4-oxadiazol-5-yl]methyl}-N-hydroxy-1,2,3,4-tetrahydroisoquinoline-6-carboxamide], the IC50 is 50 to 100 nM.

In turn, `O=C(NO)c1ccc2c(c1)CCN(C(=O)C13CC4CC(CC(C4)C1)C3)C2` [Compound 33, 2-[1-adamantylcarbonyl]-N-hydroxy-1,2,3,4-tetrahydroisoquinoline-6-carboxamide] registered a half-inhibitory concentration (IC50) of less than 50 nM.
